This note sets out measurements from patent US20230131899A1, “INHIBITORS OF MICROBIALLY INDUCED AMYLOID” (Axial Therapeutics, Inc., priority 2020, published 2023).

SMILES strings stand for the structures. Like-named read-outs stand apart in the source and are kept apart here.

Assay [1] deals with CsgA gene expression (csgBAC promoter-GFP reporter) in E. coli UTI89. Kind of assay: In vitro live cell fluorescent reporter assay of CsgA transcription (Reporter Assay). The format is cell-based. In a few lines: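 Compounds at 0.14–100 μM (1% DMSO final) incubated 20 h at 27 °C in YESCA broth with UTI89 carrying a single-copy GFP reporter under the csgBAC intergenic promoter region, inoculum OD600 0.003. Fluorescence normalized to vehicle wells gave IC50 and 50%-of-vehicle concentration; OD600 reduction >10% flagged growth impact.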

Another assay deals with T1, E. coli CsgA (Escherichia coli, UniProt P28307).
T1 construct: made in house; host or cells: E. coli NEB 3016 slyD::kan, pET11d
T1 sequence (P28307 23-151): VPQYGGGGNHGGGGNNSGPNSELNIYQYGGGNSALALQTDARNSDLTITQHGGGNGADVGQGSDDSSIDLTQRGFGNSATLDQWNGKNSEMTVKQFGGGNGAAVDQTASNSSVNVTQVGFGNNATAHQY
The experiment in a line: In vitro ThioflavinT assay of CsgA aggregation (CsgA ThT Assay). The assay is classed as biochemical. Conditions: 1005 minutes. In a few lines:
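Purified C-terminal His-tagged CsgA, monomerised by desalting and 30-kDa filtration, at 2-20 μM with 20-40 μM ThT in 50 mM potassium phosphate pH 7.3, 1% DMSO, compounds 3.125-200 uM; room temperature, fluorescence (ex 438/em 495 nm) read every 15 min. Background-subtracted signal expressed as percent inhibition versus vehicle at 6-6.5 or 8-9 h, or as percent control AUC.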

[2] abbreviates: Escherichia coli, read-out: Reporter Assay Abs IC50 (activity range), median Abs IC50 in the CsgA reporter assay, class symbol.
Where [3] appears, read: Escherichia coli, read-out: Reporter Assay Abs IC50 (μM), median Abs IC50 in the CsgA reporter assay, N/A = maximum expression reduction is <50% of control.
[4] abbreviates: read-out: CsgA ThT Assay (10 μM CsgA) % Control AUC at 1005 minutes, 25 μM (activity range), CsgA 10 μM, black plates, compound 25 μM, class symbol.
The mark [5] stands for this setting: read-out: CsgA ThT Assay (10 μM CsgA) % Control AUC at 1005 minutes, 25 μM, mean AUC as % of DMSO control, CsgA 10 μM, black plates, compound 25 μM.
[6] abbreviates: read-out: CsgA ThT Assay (10 μM CsgA) % Control AUC at 1005 minutes, 100 μM (activity range), CsgA 10 μM, black plates, compound 100 μM, class symbol.
[7] abbreviates: read-out: CsgA ThT Assay (10 μM CsgA) % Control AUC at 1005 minutes, 100 μM, mean AUC as % of DMSO control, CsgA 10 μM, black plates, compound 100 μM.
Setting [8] is: CsgA 10 μM, black plates, compound 25 μM, class symbol.

For the molecule `CN1CC(C(=O)O)n2c(c(-c3cccc(C(F)(F)F)c3)c(Cc3cccc4ccccc34)c(Br)c2=O)S1(=O)=O` (stereo not drawn) [Compound 058, 7-bromo-2-methyl-8-(naphthalen-1-ylmethyl)-6-oxo-9-(3-(trifluoromethyl)phenyl)-3,4-dihydro-2H,6H-pyrido[1,2-e][1,2,5]thiadiazine-4-carboxylic acid 1,1-dioxide], the concentration for half-maximal inhibition (IC50) (commonly the concentration needed to halve the response being measured) is more than 10 µM in assay [1] (setting [2]) and 19.8 µM in assay [1] (setting [3]). The remaining activity at 25 µM at E. coli CsgA (setting [4]) is 31 to 60%; at E. coli CsgA (setting [5]), 47%. Further, the remaining activity at 100 µM is 11 to 31% at E. coli CsgA (setting [6]) and 22% at E. coli CsgA (setting [7]).

Take `CN(C)Cc1c(Cc2cccc3ccccc23)c(-c2cccc(C(F)(F)F)c2)c2n(c1=O)C(C(=O)O)CS2(=O)=O` (stereo not drawn) [Compound 083, 6-((dimethylamino)methyl)-7-(naphthalen-1-ylmethyl)-5-oxo-8-(3-(trifluoromethyl)phenyl)-2,3-dihydro-5H-thiazolo[3,2-a]pyridine-3-carboxylic acid 1,1-dioxide]: the results for the IC50 in assay [1] (setting [2]) and in assay [1] (setting [3]) were more than 10 µM and 14.6 µM, respectively. The figures for the remaining activity at 25 µM at E. coli CsgA (setting [4]) and at E. coli CsgA (setting [5]) were more than 60% and 102%, respectively. Also, the remaining activity at 100 µM was more than 60% on E. coli CsgA (setting [6]) and 80% at E. coli CsgA (setting [7]).

On to `C/C=C\c1c(Cc2cccc3ccccc23)c(-c2cccc(C(F)(F)F)c2)c2n(c1=O)C(C(=O)O)CN(C)S2(=O)=O` (stereo not drawn) [Compound 087, (Z)-2-methyl-8-(naphthalen-1-ylmethyl)-6-oxo-7-(prop-1-en-1-yl)-9-(3-(trifluoromethyl)phenyl)-3,4-dihydro-2H,6H-pyrido[1,2-e][1,2,5]thiadiazine-4-carboxylic acid 1,1-dioxide], for which the values for the IC50 in assay [1] (setting [2]) and in assay [1] (setting [3]) were 4.6 to 10 µM and 6 µM, respectively. In addition, the remaining activity at 25 µM at E. coli CsgA (setting [4]) was 11 to 31%; on E. coli CsgA (setting [5]), 30%. In addition, the remaining activity at 100 µM at E. coli CsgA (setting [6]) was 11 to 31%; on E. coli CsgA (setting [7]), 15%.

For the molecule `O=C(O)CC1CSc2c(-c3cccc(C(F)(F)F)c3)c(Cc3cccc4ccccc34)cc(=O)n21` (stereo not drawn) [Compound 129, 2-(7-(naphthalen-1-ylmethyl)-5-oxo-8-(3-(trifluoromethyl)phenyl)-2,3-dihydro-5H-thiazolo[3,2-a]pyridin-3-yl)acetic acid], the concentration for half-maximal inhibition (IC50) is 1.3 to 4.5 µM in assay [1] (setting [2]) and 3.4 µM in assay [1] (setting [3]). In addition, the remaining activity at 25 µM on E. coli CsgA (setting [4]) is 11 to 31%; on E. coli CsgA (setting [5]), 28%. Besides, the remaining activity at 100 µM on E. coli CsgA (setting [6]) is more than 60%; at E. coli CsgA (setting [7]), 61%.

In the case of `CCCCCN1CC(C(=O)O)n2c(c(-c3cccc(C(F)(F)F)c3)c(Cc3cccc4ccccc34)c(N)c2=O)S1(=O)=O` (stereo not drawn) [Compound 094, 7-amino-8-(naphthalen-1-ylmethyl)-6-oxo-2-pentyl-9-(3-(trifluoromethyl)phenyl)-3,4-dihydro-2H,6H-pyrido[1,2-e][1,2,5]thiadiazine-4-carboxylic acid 1,1-dioxide], the IC50 in assay [1] (setting [2]) is 1.3 to 4.5 µM; in assay [1] (setting [3]), 1.9 µM. Moreover, the remaining activity at 25 µM at E. coli CsgA (setting [4]) was 31 to 60%; at E. coli CsgA (setting [5]), 51%. Besides, the remaining activity at 100 µM on E. coli CsgA (setting [6]) was 11 to 31%; at E. coli CsgA (setting [7]), 30%.

Take `C=Cc1c(Cc2cccc3ccccc23)c(-c2cccc(C(F)(F)F)c2)c2n(c1=O)C(C(=O)O)CN(C)S2(=O)=O` (stereo not drawn) [Compound 078, 2-methyl-8-(naphthalen-1-ylmethyl)-6-oxo-9-(3-(trifluoromethyl)phenyl)-7-vinyl-3,4-dihydro-2H,6H-pyrido[1,2-e][1,2,5]thiadiazine-4-carboxylic acid 1,1-dioxide]: the IC50 in assay [1] (setting [2]) was 4.6 to 10 µM; in assay [1] (setting [3]), 5.1 µM. For the same molecule, the remaining activity at 25 µM at E. coli CsgA (setting [4]) was 11 to 31%; on E. coli CsgA (setting [5]) it was 19%. Also, the remaining activity at 100 µM on E. coli CsgA (setting [6]) is 11 to 31%; at E. coli CsgA (setting [7]) it was 12%.

Turning to `CCCN1CC(C(=O)O)n2c(c(-c3cccc(C(F)(F)F)c3)c(Cc3cccc4ccccc34)cc2=O)S1(=O)=O` (single isomer, unassigned) [Compound 016a, 8-(naphthalen-1-ylmethyl)-6-oxo-2-propyl-9-(3-(trifluoromethyl)phenyl)-3,4-dihydro-2H,6H-pyrido[1,2-e][1,2,5]thiadiazine-4-carboxylic acid 1,1-dioxide], the IC50 in assay [1] (setting [2]) was 4.6 to 10 µM; in assay [1] (setting [3]), 8.3 µM. Further, the “CsgA ThT Assay (10 μM CsgA) % Control AUC at 1005 minutes, 25 μM (activity range)” value on E. coli CsgA (setting [8]) is given as “(+++) (% control AUC of 11 to 31%)”. Further, on E. coli CsgA (setting [5]), the remaining activity at 25 µM was 21%. Also, the remaining activity at 100 µM was 11 to 31% on E. coli CsgA (setting [6]) and 14% at E. coli CsgA (setting [7]).

As to `COC(=O)C1CSc2c(-c3cccc(C(F)(F)F)c3)c(Cc3cccc4ccccc34)cc(=O)n21` (stereo not drawn) [Compound 012, Methyl 7-(naphthalen-1-ylmethyl)-5-oxo-8-(3-(trifluoromethyl)phenyl)-2,3-dihydro-5H-thiazolo[3,2-a]pyridine-3-carboxylate], the IC50 in assay [1] (setting [2]) is 1.3 to 4.5 µM; in assay [1] (setting [3]) it was 3.3 µM. Also, the values for the remaining activity at 25 µM on E. coli CsgA (setting [4]) and on E. coli CsgA (setting [5]) were more than 60% and 108%, respectively. Further, the remaining activity at 100 µM on E. coli CsgA (setting [6]) was more than 60%; on E. coli CsgA (setting [7]) it was 107%.

Turning to `Nc1c(Cc2cccc3ccccc23)c(-c2cccc(C(F)(F)F)c2)c2n(c1=O)C(C(=O)O)CN(CCCO)S2(=O)=O` (stereo not drawn) [Compound 097, 7-amino-2-(3-hydroxypropyl)-8-(naphthalen-1-ylmethyl)-6-oxo-9-(3-(trifluoromethyl)phenyl)-3,4-dihydro-2H,6H-pyrido[1,2-e][1,2,5]thiadiazine-4-carboxylic acid 1,1-dioxide], the IC50 is more than 10 µM in assay [1] (setting [2]) and 18.4 µM in assay [1] (setting [3]). Further, the remaining activity at 25 µM at E. coli CsgA (setting [4]) was more than 60%; at E. coli CsgA (setting [5]), 63%. In addition, the remaining activity at 100 µM is 31 to 60% at E. coli CsgA (setting [6]) and 41% on E. coli CsgA (setting [7]).

Take `CCCc1sc2c(-c3cccc(C(F)(F)F)c3)c(Cc3cccc4ccccc34)cc(=O)n2c1C(=O)O` [Compound 061, 7-(naphthalen-1-ylmethyl)-5-oxo-2-propyl-8-(3-(trifluoromethyl)phenyl)-5H-thiazolo[3,2-a]pyridine-3-carboxylic acid]: the 50% inhibitory concentration (IC50) in assay [1] (setting [2]) was 1.3 to 4.5 µM; in assay [1] (setting [3]), 2.1 µM. Further, the remaining activity at 25 µM is 31 to 60% at E. coli CsgA (setting [4]) and 44% at E. coli CsgA (setting [5]). For the same molecule, the results for the remaining activity at 100 µM on E. coli CsgA (setting [6]) and at E. coli CsgA (setting [7]) were 31 to 60% and 45%, respectively.

`O=C(O)C1CSc2c(-c3cccc(C(F)(F)F)c3)c(Cc3cccc4ccccc34)cc(=O)n21` (single isomer, unassigned) [Compound 011b, 7-(naphthalen-1-ylmethyl)-5-oxo-8-(3-(trifluoromethyl)phenyl)-2,3-dihydro-5H-thiazolo[3,2-a]pyridine-3-carboxylic acid]: the IC50 was 1.3 to 4.5 µM in assay [1] (read-out: Reporter Assay Abs IC50 (activity range), median Abs IC50 in the CsgA reporter assay, class symbol) and 4.1 µM in assay [1] (read-out: Reporter Assay Abs IC50, median Abs IC50 in the CsgA reporter assay, N/A = maximum expression reduction is <50% of control). Also, the “CsgA ThT Assay (10 μM CsgA) % Control AUC at 1005 minutes, 25 μM (activity range)” value at E. coli CsgA (setting [8]) was “(++) (% control AUC of 31 to 60%)”. In addition, the “CsgA ThT Assay (10 μM CsgA) % Control AUC at 1005 minutes, 100 μM (activity range)” value at E. coli CsgA (CsgA 10 μM, black plates, compound 100 μM, class symbol) is “(++) (% control AUC of 31 to 60%)”. Besides, the “CsgA ThT Assay (10 μM CsgA) % Control AUC at 1005 minutes, 25 μM” value on E. coli CsgA (mean AUC as % of DMSO control, CsgA 10 μM, black plates, compound 25 μM) stood at 54%. For the same molecule, the “CsgA ThT Assay (10 μM CsgA) % Control AUC at 1005 minutes, 100 μM” value on E. coli CsgA (mean AUC as % of DMSO control, CsgA 10 μM, black plates, compound 100 μM) is 53%.

Turning to `CCN1CC(C(=O)O)n2c(c(-c3cccc(C(F)(F)F)c3)c(Cc3cccc4ccccc34)cc2=O)S1(=O)=O` (racemic) [Compound 015, 2-ethyl-8-(naphthalen-1-ylmethyl)-6-oxo-9-(3-(trifluoromethyl)phenyl)-3,4-dihydro-2H,6H-pyrido[1,2-e][1,2,5]thiadiazine-4-carboxylic acid 1,1-dioxide], the values for the IC50 in assay [1] (setting [2]) and in assay [1] (setting [3]) were 4.6 to 10 µM and 8 µM, respectively. For the same molecule, the remaining activity at 25 µM is 11 to 31% on E. coli CsgA (setting [4]) and 28% at E. coli CsgA (setting [5]). Further, the remaining activity at 100 µM is 11 to 31% at E. coli CsgA (setting [6]) and 27% on E. coli CsgA (setting [7]).
